# Where a SMILES comes first, the peptide text is derived from it. The star is where a group is joined. Myristoyl = CCCCCCCCCCCCCC(=O)*
# Test system: not listed separately
# Experiment: Qualitative solubility of test peptides in 0.5 N saline
# Assay type: physicochemical
# Conditions: pH 6.5, 20° C. (table title)
# Description: Various test peptides (1 to 5 mg each) were weighed out accurately in individual 2 mL screw cap glass vials and aliquots of 25 μL of 0.5 N saline, pH 6.5, were added at 25° C. and ambient pressure. The solubility was evaluated visually. If the test peptide dissolves completely with the first aliquot of saline, its solubility was calculated and designated as more than the calculated amount. […] Similarly, if 1.7 mg of a test peptide fails to dissolve in 1.7 mL of 0.5 N saline, its solubility is stated as <1.0 mg/mL.
row,Molecule,solubility [mg/mL]
1,CCCCCCCCCCCCCC(=O)NCC(=O)N[C@@H](C)C(=O)N[C@@H](CCC(N)=O)C(=O)N[C@@H](Cc1ccccc1)C(=O)N[C@@H](CO)C(=O)N[C@@H](CCCCN)C(=O)N[C@H](C(=O)N[C@@H](C)C(=O)N[C@@H](C)C(=O)O)[C@@H](C)O [myr-peptide 121] (Myristoyl-GAQFSKTAA-OH),< 1
2,CCCCCCCCCCCCCC(=O)N[C@@H](CCCNC(=N)N)C(=O)N1CCC[C@H]1C(=O)NCC(=O)N[C@@H](CCC(=O)O)C(=O)N[C@@H](C)C(=O)N[C@@H](C)C(=O)N[C@H](C(=O)N[C@@H](C)C(=O)O)C(C)C [myr-peptide 153] (Myristoyl-RPGEAAVA-OH),< 10
3,CCCCCCCCCCCCCC(=O)NCC(=O)N[C@@H](CCCCN)C(=O)N[C@@H](CCC(N)=O)C(=O)N[C@@H](Cc1ccccc1)C(=O)N[C@@H](CO)C(=O)N[C@@H](CCCCN)C(=O)N[C@H](C(=O)N[C@@H](CCCCN)C(=O)N[C@@H](C)C(=O)N[C@@H](CCCCN)C(=O)NCC(=O)N[C@@H](CCC(=O)O)C(=O)O)[C@@H](C)O [myr-peptide 235] (Myristoyl-GKQFSKTKAKGE-OH),> 60
4,Ac-GAQFAKTAAK-OH [Ac-peptide 244],> 120
5,Ac-GAQFSKTAAKGE-OH [Ac-peptide 79],> 100
6,Ac-FSKTAAKGE-NH2 [Ac-peptide 124-NH2],> 100
7,Ac-TAAKGEAA-OH [Ac-peptide 143],> 230
8,Ac-GAQFSKTAAAGE-OH [Ac-peptide 239],> 50
9,Ac-GAQFSKTAA-OH [Ac-peptide 121],> 20
10,CCCCCCCCCCCCCC(=O)NCC(=O)N[C@@H](CCCCN)C(=O)N[C@@H](CCC(N)=O)C(=O)N[C@@H](Cc1ccccc1)C(=O)N[C@@H](CO)C(=O)N[C@@H](CCCCN)C(=O)N[C@H](C(=O)N[C@@H](C)C(=O)N[C@@H](C)C(=O)N[C@@H](CCCCN)C(=O)NCC(=O)N[C@@H](CCC(=O)O)C(=O)O)[C@@H](C)O [myr-peptide 233] (Myristoyl-GKQFSKTAAKGE-OH),> 3
11,CCCCCCCCCCCCCC(=O)NCC(=O)N[C@@H](C)C(=O)N[C@@H](CCC(N)=O)C(=O)N[C@@H](Cc1ccccc1)C(=O)N[C@@H](CO)C(=O)N[C@@H](CCCCN)C(=O)N[C@H](C(=O)N[C@@H](C)C(=O)N[C@@H](C)C(=O)N[C@@H](CCCCN)C(=O)NCC(=O)N[C@@H](CCC(=O)O)C(=O)N[C@@H](C)C(=O)N[C@@H](C)C(=O)N[C@@H](C)C(=O)N[C@@H](CCC(=O)O)C(=O)N[C@@H](CCCNC(=N)N)C(=O)N1CCC[C@H]1C(=O)NCC(=O)N[C@@H](CCC(=O)O)C(=O)O)[C@@H](C)O [myr-peptide 11] (Myristoyl-GAQFSKTAAKGEAAAERPGE-OH),> 2
12,CCCCCCCCCCCCCC(=O)NCC(=O)N[C@@H](C)C(=O)N[C@@H](CCC(N)=O)C(=O)N[C@@H](Cc1ccccc1)C(=O)N[C@@H](CO)C(=O)N[C@@H](CCCCN)C(=O)N[C@H](C(=O)N[C@@H](C)C(=O)N[C@@H](C)C(=O)N[C@@H](CCCCN)C(=O)NCC(=O)N[C@@H](CCC(=O)O)C(N)=O)[C@@H](C)O [myr-peptide 79-NH2] (Myristoyl-GAQFSKTAAKGE-NH2),< 1
13,Ac-GAQFSATAAA-OH [Ac-peptide 249],< 1
14,CCCCCCCCCCCCCC(=O)N[C@H](C(=O)N[C@@H](C)C(=O)N[C@@H](C)C(=O)N[C@@H](CCCCN)C(=O)NCC(=O)N[C@@H](CCC(=O)O)C(=O)N[C@@H](C)C(=O)N[C@@H](C)C(=O)O)[C@@H](C)O [myr-peptide 143] (Myristoyl-TAAKGEAA-OH),< 1
15,Ac-AAKGEA-OH [Ac-peptide 179],> 150
16,"Ac-GKASQFAKTA-OH [Ac-peptide 252, reference compound]",< 30
17,CCCCCCCCCCCCCC(=O)NCC(=O)N[C@@H](C)C(=O)N[C@@H](CCC(N)=O)C(=O)N[C@@H](C)C(=O)N[C@@H](CO)C(=O)N[C@@H](CCCCN)C(=O)N[C@H](C(=O)N[C@@H](C)C(=O)N[C@@H](C)C(=O)N[C@@H](CCCCN)C(=O)NCC(=O)N[C@@H](CCC(=O)O)C(N)=O)[C@@H](C)O [myr-peptide 237-NH2] (Myristoyl-GAQASKTAAKGE-NH2),< 1
18,CCCCCCCCCCCCCC(=O)N[C@@H](C)C(=O)N[C@@H](CCCCN)C(=O)NCC(=O)N[C@@H](CCC(=O)O)C(=O)O [myr-peptide 219] (Myristoyl-AKGE-OH),< 1
19,"Ac-KAATKSFQAG-OH [Ac-peptide 246, reference compound]",< 30

# Test system: methacholine-induced mucin hypersecretion
# Experiment: Methacholine-induced mucin hypersecretion in ovalbumin-sensitized mouse model of asthma, BAL mucin ELISA (Balb/C mice)
# Assay type: in vivo
# Conditions: Table II, peptides at 100 μM, 50 μL intratracheal 15 min before methacholine
# Excerpt: Experiments were designed to test whether or not the MANS peptide and other test peptides related thereto inhibit hypersecretion of mucin in murine airway in vivo. The ovalbumin-sensitized mouse model of allergic inflammation and asthma used in these studies was as described by Singer et al. (2004), supra. As a negative control, a control peptide containing an N-terminal myristoyl group and the same amino acids as MANS peptide but arranged in random order (i.e., the random N-terminal sequence, RNS, myristoyl-peptide 232) was tested alongside the proposed active peptides. BP2 mice, aged 6-8 wks, were immunized subcutaneously twice at weekly intervals with 1 μg of ovalbumin. After 14 days of sensitization, the animals were exposed to aerosolized ovalbumin, which causes a pronounced goblet cell hyperplasia after 72 hours. At the 72 hr time point, the secretagogue, methacholine ([…]) was delivered using a Buxco system nebulizer providing a fine aerosol for 90 seconds. Fifteen min prior to the secretagogue challenge, 50 μL of the test peptide, at 3 different concentrations (10 μM, 100 μM, or 140 μM), was administered by intratracheal route. The RNS peptide was tested at the highest dose level only (50 μL of 140 μM solution). […] Each experiment was carried out in 6 mice per point, and each set of experiments was repeated 3 times. To test strain-to-strain variations, the above experiment was repeated in Balb/C mice under similar protocol. Both stimulated and unstimulated mucin secretion, in mice treated with […] sodium acetate (data not shown), were identical to saline control. Following the methacholine challenge, the animals were sacrificed and bronchoalveolar lavage (BAL) performed on 6 animals per group for analysis of secreted mucin.
# Mice were sacrificed by cervical dislocation, followed by rapid exposure of the trachea and insertion of a cannula through a small incision. Bronchoalveolar lavage (BAL) fluid was collected with 0.5 ml followed by 3×1 ml PBS containing PMSF (5 mM), EDTA (5 mM), and DTT (5 mM). BAL fluid was separated into cell-free and cell fractions via brief centrifugation prior to any analyses being performed. The cell-free supernatants were analyzed for the presence of mucin via an ELISA method using anti-mucin antibodies shown to react with mouse mucin. Specifically, a mouse anti-MUC5AC antibody that recognizes the carbohydrate portion of secreted mucin was used in these assays. Data generated from each BAL sample were normalized to total protein as determined by Bradford assay. Mucin content was expressed as the value obtained with the anti-mucin antibody minus that obtained with the non-immune control antibody. All ELISA data were statistically examined using a one-way ANOVA.
row,Molecule,Mucin Secretion % control [% control]
1,CCCCCCCCCCCCCC(=O)NCC(=O)N[C@@H](CCCCN)C(=O)N[C@@H](CCC(N)=O)C(=O)N[C@@H](Cc1ccccc1)C(=O)N[C@@H](CO)C(=O)N[C@@H](CCCCN)C(=O)N[C@H](C(=O)N[C@@H](CCCCN)C(=O)N[C@@H](C)C(=O)N[C@@H](CCCCN)C(=O)NCC(=O)N[C@@H](CCC(=O)O)C(=O)O)[C@@H](C)O [myr-peptide 235] (Myristoyl-GKQFSKTKAKGE-OH),13
2,CCCCCCCCCCCCCC(=O)NCC(=O)N[C@@H](CCCCN)C(=O)N[C@@H](CCC(N)=O)C(=O)N[C@@H](Cc1ccccc1)C(=O)N[C@@H](CO)C(=O)N[C@@H](CCCCN)C(=O)N[C@H](C(=O)N[C@@H](C)C(=O)N[C@@H](C)C(=O)N[C@@H](CCCCN)C(=O)NCC(=O)N[C@@H](CCC(=O)O)C(=O)O)[C@@H](C)O [myr-peptide 233] (Myristoyl-GKQFSKTAAKGE-OH),21
3,CCCCCCCCCCCCCC(=O)NCC(=O)N[C@@H](C)C(=O)N[C@@H](CCC(N)=O)C(=O)N[C@@H](Cc1ccccc1)C(=O)N[C@@H](CO)C(=O)N[C@@H](CCCCN)C(=O)N[C@H](C(=O)N[C@@H](C)C(N)=O)[C@@H](C)O [myr-peptide 137-NH2] (Myristoyl-GAQFSKTA-NH2),56

# Same assay, conditions: Table III, peptides at 100 μM
row,Molecule,Mucin Secretion % control [% control]
1,CCCCCCCCCCCCCC(=O)N[C@@H](CCCNC(=N)N)C(=O)N1CCC[C@H]1C(=O)NCC(=O)N[C@@H](CCC(=O)O)C(=O)N[C@@H](C)C(=O)N[C@@H](C)C(=O)N[C@H](C(=O)N[C@@H](C)C(=O)O)C(C)C [myr-peptide 153] (Myristoyl-RPGEAAVA-OH),50
2,CCCCCCCCCCCCCC(=O)NCC(=O)N[C@@H](C)C(=O)N[C@@H](CCC(N)=O)C(=O)N[C@@H](Cc1ccccc1)C(=O)N[C@@H](CO)C(=O)N[C@@H](CCCCN)C(=O)N[C@H](C(=O)N[C@@H](C)C(=O)N[C@@H](C)C(=O)N[C@@H](CCCCN)C(=O)NCC(=O)N[C@@H](CCC(=O)O)C(=O)N[C@@H](C)C(=O)N[C@@H](C)C(=O)N[C@@H](C)C(=O)N[C@@H](CCC(=O)O)C(=O)N[C@@H](CCCNC(=N)N)C(=O)N1CCC[C@H]1C(=O)NCC(=O)N[C@@H](CCC(=O)O)C(=O)O)[C@@H](C)O [myr-peptide 11] (Myristoyl-GAQFSKTAAKGEAAAERPGE-OH),54
